{"source": "patent US20200375965A1", "about": "“Targeting Lipid Metabolism and Free Fatty Acid (FFA) Oxidation to Treat Diseases Mediated by Resident Memory T Cells (TRM)” (The Brigham and Women's Hospital, Inc., priority 2018, published 2020)", "key": {"[1]": {"system": "VACV", "set-up": "species or system mice", "conditions": "mouse, in vivo"}, "[2]": {"system": "WR-VACV", "set-up": "species or system mice", "conditions": "mouse, in vivo"}, "[3]": {"system": "TRM mediated contact hypersensitivity (CHS)", "test": "DNFB contact hypersensitivity (CHS), ear thickness", "type": "in vivo, C57BL/6 mice", "conditions": "etomoxir 1 ug/site, trimetazidine 10 ug/site at challenge with 0.25% DNFB", "procedure": "FIG. 15. […] Effect of FAO inhibition on contact hypersensitivity (CHS) reaction post DNFB re-exposure. DNFB: 20 ul, 0.25% in acetone:olive oil (aOO) (3:1 v/v); Etomoxir (1 ug/site); Trimetazidine (10 ug/site). N=10 mice per group.\nC57BL/6 mice were sensitized by topical applications of 20 μl of 0.25% DNFB diluted in acetone olive oil (3:1 v/v) at the indicated time points (day 0, 1 and 7). Challenge was performed at the infection site with 20 μl of DNFB-acetone olive oil (aOO) (0.25%), with or without etomoxir (1 ug/site) and trimetazidine (10 ug/site), at the indicated time points. Then the ear thickness of the mice was measured with a digital thickness gauge (Mitsutoyo) for the following days."}, "[4]": {"system": "OT-I TRM, TCM and Fabp4/5 dKO TRM", "test": "Seahorse Fatty Acid Oxidation (FAO) assay, oxygen-consumption rate", "type": "cell-based, mouse", "procedure": "Oxidation of exogenous free fatty acids (FFA) was measured using XF Palmitate-BSA FAO substrate with XF cell mito stress kit according to the manufacturer's protocol (Seahorse Bioscience). Freshly isolated and sorted T cells (2.5×10^5) were incubated for 30 min with FAO assay medium (111 mM NaCl, 4.7 mM KCl, 1.25 mM CaCl2), 2.0 mM MgSO4, 1.2 mM Na2HPO4, 2.5 mM glucose, 0.5 mM carnitine and 5 mM HEPES). When required, cells were pre-treated with etomoxir (40 μM) for 15 min. Afterwards, BSA (34 μM) or palmitate-BSA (200 μM palmitate conjugated with 34 μM BSA) was added to the medium, and the oxygen-consumption rate (OCR) was measured under basal conditions and in response to 1 uM oligomycin, 1.5 uM fluorocarbonyl cyanide phenylhydrazone (FCCP), and 100 nM rotenone+1 uM antimycin A. Results were normalized to those of control cells in the presence of BSA."}, "[5]": {"system": "OT-1 skin TRM", "test": "Bodipy FL C16 (Bodipy conjugated palmitate) uptake ex vivo, flow cytometry", "type": "cell-based, mouse", "conditions": "pre-incubation with unlabeled palmitate (100 μM palmitic acid, 10 min, 37° C.); day 30 TRM", "text": "The following anti-mouse antibodies were obtained from BD PharMingen: PerCP-conjugated anti-CD3e (553067), PE-conjugated anti-CD8 (557654), PE-Cy7-conjugated anti-CD8 (552877), APC-Cy7-conjugated anti-CD8 (557654), PE-conjugated anti-Thy1.1 (561404), APC-conjugated anti-Thy1.1 (557266), Alexa Fluor 488-conjugated anti-KLRG1 (561619), PE-conjugated anti-integrin α4β7 (553811), PE-Cy7-conjugated anti-CD62L (560516), APC-Cy7-conjugated CD62L (560514), APC-conjugated anti-IFN-γ (554413). Biolegend: Alexa Fluor 488-conjugated anti-CD3e (100321), Alexa Fluor 647-conjugated anti-CD4 (100424), Alexa Fluor 594-conjugated anti-Ep-CAM (118222), FITC-conjugated anti-CD45.1 (110706), PE-conjugated anti-CD45.1 (110708), PE-Cy7-conjugated anti-CD45.2 (109830), APC-conjugated anti-CD45.2 (109814), PE-conjugated anti-CD45.2 (109808), APC-conjugated anti-KLRG1 (138412), PE-conjugated anti-CD44 (103008), PE-Cy7-conjugated anti-CD44 (103030), PE-Cy7-conjugated anti-CD69 (104512), APC-conjugated anti-CD103 (121414), APC-conjugated anti-integrin α4β7 (120608). […] Apoptosis was measured with FITC Annexin V Apoptosis Detection Kit (640922; Biolegend) according to manufacturer's protocol. Flow cytometry data were acquired with a FACS Canto II flow cytometer (BD Biosciences) and data were analyzed with Flowjo software (Tree Star). […]"}}}
{"molecule": "CCCCCCCCc1ccc(CCC(N)(CO)CO)cc1", "note": "[FTY720]", "values": [{"measurement": "clearing of virus from skin by established OT-I WT TRM", "setting": "[1]; ip, 1 mg/kg", "result": "unaffected"}, {"measurement": "reduced viral clearance by OT-I TRM lacking Fabp4 and Fabp5", "setting": "[1]; ip, 1 mg/kg", "result": "exaggerated"}, {"measurement": "mortality", "setting": "[2]", "result": 100, "unit": "%"}, {"measurement": "protection from lethality", "setting": "[2]", "result": "partially but significantly protected"}]}
{"molecule": "CCOC(=O)C1(CCCCCCOc2ccc(Cl)cc2)CO1", "note": "(stereo not shown) [etomoxir, 2-(6-(4-chlorophenoxy)-hexyl)-oxirane-2-carboxylic acid ethyl ester]", "values": [{"measurement": "VACV clearing capacity of OT-I WT TRM", "setting": "[1]", "result": "reduced"}, {"measurement": "contact hypersensitivity (CHS) reaction post DNFB re-exposure", "setting": "[3]", "result": "Block"}, {"measurement": "enhanced basal and FCCP-stimulated maximal oxygen-consumption rate (OCR) induced by extracellular fatty acids", "setting": "[4]; OT-I TRM, pre-treatment with etomoxir 40 μM for 15 min", "result": "blocked"}, {"measurement": "cellular respiration (OCR)", "setting": "[4]; TCM or Fabp4/5 dKO TRM OT-I cells, addition of etomoxir", "result": "no effect"}]}
{"molecule": "COc1ccc(CN2CCNCC2)c(OC)c1OC", "note": "[trimetazidine]", "values": [{"measurement": "contact hypersensitivity (CHS) reaction post DNFB re-exposure", "setting": "[3]", "result": "Block"}]}
{"molecule": "CCCCCCCCCCCCCCCC(=O)O", "note": "[unlabeled palmitate, palmitic acid]", "values": [{"measurement": "uptake of extracellular Bodipy conjugated palmitate", "setting": "[5]", "result": "blocked"}]}
